Literature values in US11135320B2, “Radioligands for pretargeted pet imaging and methods of their therapeutic use” (priority 2015, dated 2021).
Read-outs that look alike come from different tables or passages of the source.

Columns and labels:
[1] = system: subcutaneous SW1222 xenografts (A33 antigen-expressing human colorectal carcinoma); conditions: 24 h accumulation interval, Zeglis 2013, cited from earlier work
[2] = pretargeting, 24 h interval; Zeglis 2013; cited from earlier work

O=C([O-])CN1CCN(CC(=O)[O-])CC(Cc2ccc(NC(=O)CCCC(=O)NCc3ccc(-c4nncnn4)cc3)cc2)N(CC(=O)[O-])CC1.[64Cu+2] (centres unmarked) [^64Cu-Tz-NOTA]
Blood activity concentration ([1]; 1 h p.i.): 3.47 ± 0.63 % ID/g | Bone activity concentration ([1]; 1 h p.i.): 0.3 ± 0.16 % ID/g | Heart activity concentration ([1]; 1 h p.i.): 1.09 ± 0.18 % ID/g | Kidney activity concentration ([1]; 1 h p.i.): 1.3 ± 0.15 % ID/g | Large Intestine activity concentration ([1]; 1 h p.i.): 13.29±3.15 % ID/g | Liver activity concentration ([1]; 1 h p.i.): 2.19 ± 0.25 % ID/g | Lung activity concentration ([1]; 1 h p.i.): 1.58 ± 0.46 % ID/g | Muscle activity concentration ([1]; 1 h p.i.): 0.22 ± 0.04 % ID/g | Small Intestine activity concentration ([1]; 1 h p.i.): 0.03 ± 0.04 % ID/g | Spleen activity concentration ([1]; 1 h p.i.): 0.63 ± 0.07 % ID/g | Stomach activity concentration ([1]; 1 h p.i.): 0.45 ± 0.08 % ID/g | Tumor activity concentration ([1]; 1 h p.i.): 4.07 ± 0.25 % ID/g | Tumor/Blood activity concentration ratio ([1]; 1 h p.i.): 1.17 ± 0.22 | Tumor/Bone activity concentration ratio ([1]; 1 h p.i.): 13.72 ± 7.63 | Tumor/Heart activity concentration ratio ([1]; 1 h p.i.): 3.75 ± 0.65 | Tumor/Kidney activity concentration ratio ([1]; 1 h p.i.): 3.14 ± 0.41 | Tumor/Large Intestine activity concentration ratio ([1]; 1 h p.i.): 0.31 ± 0.08 | Tumor/Liver activity concentration ratio ([1]; 1 h p.i.): 1.86 ± 0.24 | Tumor/Lung activity concentration ratio ([1]; 1 h p.i.): 2.57 ± 0.76 | Tumor/Muscle activity concentration ratio ([1]; 1 h p.i.): 18.42 ± 3.71 | Tumor/Small Intestine activity concentration ratio ([1]; 1 h p.i.): 119.52 ± 148.82 | Tumor/Spleen activity concentration ratio ([1]; 1 h p.i.): 6.46 ± 0.81 | Tumor/Stomach activity concentration ratio ([1]; 1 h p.i.): 8.96 ± 1.7 | Blood activity concentration ([1]; 4 h p.i.): 2.61 ± 0.83 % ID/g | Bone activity concentration ([1]; 4 h p.i.): 0.27 ± 0.24 % ID/g | Heart activity concentration ([1]; 4 h p.i.): 0.91 ± 0.27 % ID/g | Kidney activity concentration ([1]; 4 h p.i.): 0.95 ± 0.31 % ID/g | Large Intestine activity concentration ([1]; 4 h p.i.): 9.43 ± 4.22 % ID/g | Liver activity concentration ([1]; 4 h p.i.): 1.26 ± 0.3 % ID/g | Lung activity concentration ([1]; 4 h p.i.): 1.6 ± 0.39 % ID/g | Muscle activity concentration ([1]; 4 h p.i.): 0.14 ± 0.03 % ID/g | Small Intestine activity concentration ([1]; 4 h p.i.): 0.38 ± 0.08 % ID/g | Spleen activity concentration ([1]; 4 h p.i.): 0.51 ± 0.22 % ID/g | Stomach activity concentration ([1]; 4 h p.i.): 0.25 ± 0.12 % ID/g | Tumor activity concentration ([1]; 4 h p.i.): 4.09±0.61 % ID/g | Tumor/Blood activity concentration ratio ([1]; 4 h p.i.): 1.57 ± 0.55 | Tumor/Bone activity concentration ratio ([1]; 4 h p.i.): 14.95 ± 13.2 | Tumor/Heart activity concentration ratio ([1]; 4 h p.i.): 4.51 ± 1.49 | Tumor/Kidney activity concentration ratio ([1]; 4 h p.i.): 4.32 ± 1.56 | Tumor/Large Intestine activity concentration ratio ([1]; 4 h p.i.): 0.43 ± 0.2 | Tumor/Liver activity concentration ratio ([1]; 4 h p.i.): 3.23 ± 0.9 | Tumor/Lung activity concentration ratio ([1]; 4 h p.i.): 2.55 ± 0.73 | Tumor/Muscle activity concentration ratio ([1]; 4 h p.i.): 29.38 ± 8.5 | Tumor/Small Intestine activity concentration ratio ([1]; 4 h p.i.): 10.83 ± 2.8 | Tumor/Spleen activity concentration ratio ([1]; 4 h p.i.): 7.97 ± 3.57 | Tumor/Stomach activity concentration ratio ([1]; 4 h p.i.): 16.17 ± 8.21 | Blood activity concentration ([1]; 12 h p.i.): 2.31 ± 0.4 % ID/g | Bone activity concentration ([1]; 12 h p.i.): 0.35 ± 0.11 % ID/g | Heart activity concentration ([1]; 12 h p.i.): 0.92 ± 0.14 % ID/g | Kidney activity concentration ([1]; 12 h p.i.): 0.91 ± 0.29 % ID/g | Large Intestine activity concentration ([1]; 12 h p.i.): 2.92 ± 1.34 % ID/g | Liver activity concentration ([1]; 12 h p.i.): 0.93 ± 0.23 % ID/g | Lung activity concentration ([1]; 12 h p.i.): 1.09 ± 0.38 % ID/g | Muscle activity concentration ([1]; 12 h p.i.): 0.16 ± 0.02 % ID/g | Small Intestine activity concentration ([1]; 12 h p.i.): 0.77 ± 0.51 % ID/g | Spleen activity concentration ([1]; 12 h p.i.): 0.59 ± 0.25 % ID/g | Stomach activity concentration ([1]; 12 h p.i.): 0.52 ± 0.64 % ID/g | Tumor activity concentration ([1]; 12 h p.i.): 4.20 ± 0.84 % ID/g | Tumor/Bone activity concentration ratio ([1]; 12 h p.i.): 11.98 ± 4.51 | Tumor/Heart activity concentration ratio ([1]; 12 h p.i.): 4.58 ± 1.16 | Tumor/Kidney activity concentration ratio ([1]; 12 h p.i.): 4.6 ± 1.71 | Tumor/Large Intestine activity concentration ratio ([1]; 12 h p.i.): 1.44±0.72 | Tumor/Liver activity concentration ratio ([1]; 12 h p.i.): 4.53 ± 1.45 | Tumor/Lung activity concentration ratio ([1]; 12 h p.i.): 3.87 ± 1.55 | Tumor/Small Intestine activity concentration ratio ([1]; 12 h p.i.): 5.46 ± 3.81 | Tumor/Spleen activity concentration ratio ([1]; 12 h p.i.): 7.1 ± 3.34 | Tumor/Stomach activity concentration ratio ([1]; 12 h p.i.): 8.12 ± 10.12 | Blood activity concentration ([1]; 24 h p.i.): 2.07 ± 0.49 % ID/g | Bone activity concentration ([1]; 24 h p.i.): 0.29 ± 0.07 % ID/g | Heart activity concentration ([1]; 24 h p.i.): 0.82 ± 0.21 % ID/g | Kidney activity concentration ([1]; 24 h p.i.): 0.7 ± 0.19 % ID/g | Large Intestine activity concentration ([1]; 24 h p.i.): 1.67 ± 0.88 % ID/g | Liver activity concentration ([1]; 24 h p.i.): 1.07 ± 0.15 % ID/g | Lung activity concentration ([1]; 24 h p.i.): 1.03 ± 0.31 % ID/g | Muscle activity concentration ([1]; 24 h p.i.): 0.15 ± 0.02 % ID/g | Small Intestine activity concentration ([1]; 24 h p.i.): 0.35 ± 0.04 % ID/g | Spleen activity concentration ([1]; 24 h p.i.): 0.45 ± 0.11 % ID/g | Stomach activity concentration ([1]; 24 h p.i.): 0.16 ± 0.03 % ID/g | Tumor activity concentration ([1]; 24 h p.i.): 3.94 ± 0.92 % ID/g | Tumor/Blood activity concentration ratio ([1]; 24 h p.i.): 1.9 ± 0.63 | Tumor/Bone activity concentration ratio ([1]; 24 h p.i.): 13.43 ± 4.5 | Tumor/Heart activity concentration ratio ([1]; 24 h p.i.): 4.82 ± 1.69 | Tumor/Kidney activity concentration ratio ([1]; 24 h p.i.): 5.61 ± 1.98 | Tumor/Large Intestine activity concentration ratio ([1]; 24 h p.i.): 2.36 ± 1.37 | Tumor/Liver activity concentration ratio ([1]; 24 h p.i.): 3.69 ± 1.01 | Tumor/Lung activity concentration ratio ([1]; 24 h p.i.): 3.83 ± 1.45 | Tumor/Muscle activity concentration ratio ([1]; 24 h p.i.): 26.98 ± 7.41 | Tumor/Small Intestine activity concentration ratio ([1]; 24 h p.i.): 11.4 ± 2.91 | Tumor/Spleen activity concentration ratio ([1]; 24 h p.i.): 8.79 ± 2.98 | Tumor/Stomach activity concentration ratio ([1]; 24 h p.i.): 24.29 ± 6.89 | Adrenals absorbed dose [2]: 0.0251 rad/mCi | Bladder Wall absorbed dose [2]: 0.0262 rad/mCi | Brain absorbed dose [2]: 0.0236 rad/mCi | Breasts absorbed dose [2]: 0.0209 rad/mCi | Effective Dose [2]: 0.046 rem/mCi | Gallbladder Wall absorbed dose [2]: 0.0272 rad/mCi | Heart Wall absorbed dose [2]: 0.0294 rad/mCi | Kidneys absorbed dose [2]: 0.0315 rad/mCi | Liver absorbed dose [2]: 0.0311 rad/mCi | Lower Lg. Int. Wall absorbed dose [2]: 0.166 rad/mCi | Lungs absorbed dose [2]: 0.0289 rad/mCi | Muscle absorbed dose [2]: 0.0138 rad/mCi | Osteogenic Cells absorbed dose [2]: 0.0852 rad/mCi | Ovaries absorbed dose [2]: 0.0299 rad/mCi | Pancreas absorbed dose [2]: 0.0258 rad/mCi | Red Marrow absorbed dose [2]: 0.0530 rad/mCi | Skin absorbed dose [2]: 0.0194 rad/mCi | Small Intestine absorbed dose [2]: 0.033 rad/mCi | Spleen absorbed dose [2]: 0.0180 rad/mCi | Stomach Wall absorbed dose [2]: 0.0267 rad/mCi | Testes absorbed dose [2]: 0.0225 rad/mCi | Thymus absorbed dose [2]: 0.0227 rad/mCi | Thyroid absorbed dose [2]: 0.0228 rad/mCi | Total Body absorbed dose [2]: 0.0272 rad/mCi | Upper Lg. Int. Wall absorbed dose [2]: 0.114 rad/mCi | Uterus absorbed dose [2]: 0.0277 rad/mCi
